Laboratory results: patent US20150368195A1, “INDOLINE COMPOUNDS FOR TREATMENT AND/OR PREVENTION OF INFLAMMATION DISEASES” (Taipei Medical University, priority 2014, published 2015)

Legend:
HDAC1 = biological target: T1, HDAC1 (Homo sapiens, UniProt Q13547); assay: recombinant HDAC isoform inhibition (kit); format: biochemical; conditions: mean ± SEM, three replicates
T1 construct: purchased
From the text: (§1) Using kits that contained different recombinant HDAC isoforms, we evaluated the ability of MPT0G009 to inhibit HDAC-mediated deacetylation of lysine residues on the substrates that were provided.

HDAC2 = biological target: T2, HDAC2 (Homo sapiens, UniProt Q92769); assay: recombinant HDAC isoform inhibition (kit); format: biochemical; conditions: mean ± SEM, three replicates
T2 construct: purchased
From the text: as §1

HDAC3 = biological target: T3, HDAC3 (Homo sapiens, UniProt O15379); assay: recombinant HDAC isoform inhibition (kit); format: biochemical; conditions: mean ± SEM, three replicates
T3 construct: purchased
From the text: as §1

HDAC6 = biological target: T4, HDAC6 (Homo sapiens, UniProt Q9UBN7); assay: recombinant HDAC isoform inhibition (kit); format: biochemical; conditions: mean ± SEM, three replicates
T4 construct: purchased
From the text: as §1

HDAC8 = biological target: T5, HDAC8 (Homo sapiens, UniProt Q9BY41); assay: recombinant HDAC isoform inhibition (kit); format: biochemical; conditions: mean ± SEM, three replicates, read-out: IC50 DHAC8
T5 construct: purchased
From the text: as §1

prostaglandin E2 (PGE2) [1] = assay: LPS-induced PGE2 production in RAW 264.7 macrophages; format: cell-based, Mouse
Description: (§2) Furthermore, the anti-inflammatory effects of MPT0G009 was evaluated. […] These supernatants were then assayed for PGE2, NO, and IL-6.

prostaglandin E2 (PGE2) [2] = assay: LPS-induced PGE2 production by RA-FLS; format: cell-based; conditions: MPT0G009 0.1, 1, 10 μM; SAHA 0.3, 3, 30 μM; LPS 25 ng/mL 24 h
Description: (§3) (FIG. 1A) Structure of MPT0G009. […] Results in (FIGS. 1B-E) and (FIG. 1G) are means±SEM's for three independent experiments, *p<0.05 and **p<0.01 compared with no added inhibitor.
as §2

IL-6 = assay: IL-1β-induced IL-6 production by RA-FLS; format: cell-based; conditions: MPT0G009 0.1, 1, 10 μM; SAHA 0.3, 3, 30 μM; IL-1β 10 ng/mL 24 h
Description: as §3, §2

HIG-82 synoviocytes = assay: SRB anti-proliferation assay; format: cell-based; conditions: 24 or 48 h incubation
From the text: as §3

RA-FLS [3] = assay: SRB anti-proliferation assay; format: cell-based; conditions: 24 or 48 h incubation
From the text: as §3

RA-FLS [4] = assay: cell cycle distribution by flow cytometry (propidium iodide); format: cell-based; conditions: 24 h
From the text: as §3

p21 = p21 expression by flow cytometry or western blot in RA-FLS; format: cell-based; conditions: 24 h, 1 μM MPT0G009 or 3 μM SAHA
From the text: as §3

[5] = system: inducible nitric oxide synthase (iNOS); assay: LPS-induced iNOS protein expression, Western blot, RAW264.7; format: cell-based, Mouse; conditions: RAW264.7, 0.1-10 μM, LPS 25 ng/mL 24 h
Description: (§4) Then the cells were harvested and whole cell extracts were prepared for Western blot analysis for iNOS and COX-2. The relative protein expressions are presented as mean±SEM for four replicates. *p<0.05 compared to the LPS-treated group.

cyclooxygenase-2 (COX-2) = assay: LPS-induced COX-2 protein expression, Western blot, RAW264.7; format: cell-based, Mouse; conditions: RAW264.7, 0.1-10 μM, LPS 25 ng/mL 24 h
Description: as §4

histone H3 (Acetyl-H3) = assay: histone H3 acetylation, Western blot, RA-FLS; format: cell-based; conditions: 1 μM MPT0G009 or 30 μM SAHA; 6, 12, 24 h; starting at 12 h
Description: Then cells were harvested and cell lysates were prepared for Western blot analysis of the indicated proteins. (FIG. 5C) RA-FLS were incubated for 1 h with or without the proteasome inhibitor, MG132 (1 μM). […] Results shown are representative of three independent experiments.
This was a proteasome-dependent effect because it was reduced by pretreatment with the proteasome inhibitor, MG132 (1 μM; FIG. 5c).

NFATc1 = assay: RANKL-induced NFATc1 luciferase reporter in RAW264.7 cells; format: cell-based, Mouse; conditions: 5 nM MPT0G009; RANKL 24 h
Description: Cells were then tartrate resistant acid phosphatase (TRAP) stained, and the numbers of TRAP-positive multinuclear cells were counted. […] Images are at ×100 magnification, and the arrows indicate differentiated osteoclasts. (FIG. 6C) RAW264.7 cells were treated as in (FIG. 6B), then incubated with a fluorescein isothiocyanate (FITC)-conjugated anti-CD51/61 antibody and analyzed by flow cytometry. (FIGS. 6D and 6E) RAW264.7 cells (1×10^5) were transfected with 1 μg of pGL4.32[luc2P/NF-κB-RE/Hygro] (FIG. 6D) or pGL4.30[luc2P/NFAT-RE/Hygro] (FIG. 6E) for 24 h and then incubated for 30 min with or without MPT0G009 (5 nM). Then RANKL (50 ng/mL) was added and incubation was continued for an additional 24 h, after which luciferase activity was determined. Results in (FIGS. 6A, 6D, and 6E) are the means±SEM's for three independent experiments. **p<0.01 compared with the indicated controls.
We also assessed the effect of MTPOG009 on the DNA-binding activity of NF-kB and NFATc1, two pivotal transcriptional factors involved in RANKL-induced pathways for promoting osteoclast differentiation. When RAW264.7 cells that had been transiently transfected with reporter plasmids were treated with 5 nM MPT0G009 for 30 min before and during 24-h stimulation with RANKL, MPT0G009 inhibited RANKL-induced NF-kB (FIG. 6d) and NFATc1 (FIG. 6e) luciferase activity.

[6] = in vivo rat pharmacokinetic profiling; design: species or system rats
From the text: The pharmokinetic parameters of MPT0G009 in rats after single-dose intravenous (i.v.) and oral administration are summarized in Table 2. […].

[7] = system: tumor necrosis factor-α (TNF-α); assay: LPS-induced TNF-α production in RAW 264.7 macrophages; conditions: Mus musculus, RAW264.7, read-out: IC50 TNF-α

T3 sequence (O15379 whole entry, species assumed, canonical isoform): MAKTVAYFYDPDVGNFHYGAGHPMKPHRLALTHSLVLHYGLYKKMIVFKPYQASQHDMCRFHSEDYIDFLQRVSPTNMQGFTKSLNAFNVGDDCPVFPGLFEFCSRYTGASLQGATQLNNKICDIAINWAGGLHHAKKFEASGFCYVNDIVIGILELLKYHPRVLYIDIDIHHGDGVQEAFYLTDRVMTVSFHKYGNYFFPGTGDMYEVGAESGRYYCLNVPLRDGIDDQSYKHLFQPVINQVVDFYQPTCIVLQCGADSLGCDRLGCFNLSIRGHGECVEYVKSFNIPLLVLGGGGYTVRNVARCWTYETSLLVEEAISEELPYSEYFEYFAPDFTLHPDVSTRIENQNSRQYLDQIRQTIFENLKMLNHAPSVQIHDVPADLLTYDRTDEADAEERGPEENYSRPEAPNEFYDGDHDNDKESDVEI
T3 sequence (Q9Y618 395-489 partner limits assumed, species assumed): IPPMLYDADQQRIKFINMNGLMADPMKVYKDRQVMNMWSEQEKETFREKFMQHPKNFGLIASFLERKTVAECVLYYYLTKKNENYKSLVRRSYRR
T2 sequence (Q92769 whole entry, species assumed, canonical isoform): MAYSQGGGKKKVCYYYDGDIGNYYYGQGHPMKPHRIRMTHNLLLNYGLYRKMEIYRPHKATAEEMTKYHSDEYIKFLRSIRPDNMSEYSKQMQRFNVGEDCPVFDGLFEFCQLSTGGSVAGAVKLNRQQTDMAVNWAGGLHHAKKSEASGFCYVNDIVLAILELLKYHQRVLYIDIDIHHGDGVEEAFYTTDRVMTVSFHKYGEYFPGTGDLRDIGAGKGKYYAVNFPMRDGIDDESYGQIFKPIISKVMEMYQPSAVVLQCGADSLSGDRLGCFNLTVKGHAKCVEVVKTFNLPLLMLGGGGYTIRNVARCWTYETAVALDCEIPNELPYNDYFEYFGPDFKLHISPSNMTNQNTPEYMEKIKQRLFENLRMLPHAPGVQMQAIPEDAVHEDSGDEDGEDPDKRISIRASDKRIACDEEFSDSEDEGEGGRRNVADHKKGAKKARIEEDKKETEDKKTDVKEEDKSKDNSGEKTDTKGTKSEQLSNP
T4 sequence (Q9UBN7 whole entry, species assumed, canonical isoform): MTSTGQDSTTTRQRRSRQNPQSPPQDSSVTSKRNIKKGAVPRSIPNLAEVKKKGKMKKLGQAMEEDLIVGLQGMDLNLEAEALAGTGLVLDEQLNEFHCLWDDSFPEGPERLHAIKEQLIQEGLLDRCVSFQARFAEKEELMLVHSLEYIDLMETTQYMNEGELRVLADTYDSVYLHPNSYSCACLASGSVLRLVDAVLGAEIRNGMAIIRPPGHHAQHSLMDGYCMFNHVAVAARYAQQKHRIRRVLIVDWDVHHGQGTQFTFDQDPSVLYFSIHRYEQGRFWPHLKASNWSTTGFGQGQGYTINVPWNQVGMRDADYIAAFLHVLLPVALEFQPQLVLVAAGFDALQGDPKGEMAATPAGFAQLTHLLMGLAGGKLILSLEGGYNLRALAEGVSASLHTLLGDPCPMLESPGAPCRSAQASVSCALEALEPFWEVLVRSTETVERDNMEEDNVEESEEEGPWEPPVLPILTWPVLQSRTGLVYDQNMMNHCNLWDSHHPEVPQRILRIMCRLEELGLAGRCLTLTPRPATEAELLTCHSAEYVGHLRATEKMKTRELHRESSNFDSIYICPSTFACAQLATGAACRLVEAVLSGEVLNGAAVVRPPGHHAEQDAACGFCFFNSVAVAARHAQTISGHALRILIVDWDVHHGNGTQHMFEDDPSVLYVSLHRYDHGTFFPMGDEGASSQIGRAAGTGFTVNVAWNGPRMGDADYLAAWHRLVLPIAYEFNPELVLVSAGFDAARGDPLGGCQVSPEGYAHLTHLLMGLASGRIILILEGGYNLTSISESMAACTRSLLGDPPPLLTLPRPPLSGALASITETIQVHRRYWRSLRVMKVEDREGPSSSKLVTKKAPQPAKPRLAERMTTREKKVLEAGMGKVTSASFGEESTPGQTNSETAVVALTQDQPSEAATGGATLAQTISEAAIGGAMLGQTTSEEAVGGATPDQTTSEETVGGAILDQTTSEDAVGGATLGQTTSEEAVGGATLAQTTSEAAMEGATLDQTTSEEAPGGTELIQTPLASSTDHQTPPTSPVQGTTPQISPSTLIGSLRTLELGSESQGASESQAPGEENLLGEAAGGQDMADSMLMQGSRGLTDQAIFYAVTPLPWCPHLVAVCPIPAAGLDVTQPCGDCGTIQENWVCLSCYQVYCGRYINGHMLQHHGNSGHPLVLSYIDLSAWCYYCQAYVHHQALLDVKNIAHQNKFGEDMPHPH
T5 sequence (Q9BY41 whole entry, canonical isoform): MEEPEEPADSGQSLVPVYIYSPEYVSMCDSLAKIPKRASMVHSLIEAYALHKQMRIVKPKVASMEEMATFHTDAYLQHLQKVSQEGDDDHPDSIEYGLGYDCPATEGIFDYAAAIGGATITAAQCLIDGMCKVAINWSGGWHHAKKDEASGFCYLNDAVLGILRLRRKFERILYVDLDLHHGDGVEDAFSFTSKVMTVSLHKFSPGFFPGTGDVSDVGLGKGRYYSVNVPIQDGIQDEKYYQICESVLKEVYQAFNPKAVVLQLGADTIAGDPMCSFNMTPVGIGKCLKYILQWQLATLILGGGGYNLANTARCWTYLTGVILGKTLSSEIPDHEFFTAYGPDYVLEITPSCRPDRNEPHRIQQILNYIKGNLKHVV
T1 sequence (Q13547 whole entry, species assumed, canonical isoform): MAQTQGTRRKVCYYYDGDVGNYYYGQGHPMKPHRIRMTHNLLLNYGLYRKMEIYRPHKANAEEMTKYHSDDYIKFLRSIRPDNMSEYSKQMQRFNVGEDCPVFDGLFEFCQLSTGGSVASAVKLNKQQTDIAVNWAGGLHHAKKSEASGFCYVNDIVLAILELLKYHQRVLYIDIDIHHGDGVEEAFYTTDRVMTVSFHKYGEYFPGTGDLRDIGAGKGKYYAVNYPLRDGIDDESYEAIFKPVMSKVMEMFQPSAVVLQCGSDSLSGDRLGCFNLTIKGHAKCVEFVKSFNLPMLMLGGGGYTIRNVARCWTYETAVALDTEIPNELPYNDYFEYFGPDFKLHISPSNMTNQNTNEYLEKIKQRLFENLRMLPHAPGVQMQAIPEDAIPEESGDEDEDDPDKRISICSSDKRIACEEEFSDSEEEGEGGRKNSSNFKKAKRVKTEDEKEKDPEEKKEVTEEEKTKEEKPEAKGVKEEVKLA

Q: What does the source list for `COc1ccc(S(=O)(=O)N2CCc3cc(C=CC(=O)NO)ccc32)cc1` [Compound 9, 3-[1-(4-methoxybenzenesulfonyl)-2,3-dihydro-1H-indol-5-yl]-N-Hydroxyacrylamide]?
A: IC50 (HDAC1): 4.62 ± 0.81 nM; IC50 (HDAC2): 5.16 ± 0.76 nM; IC50 (HDAC3): 1.91 nM; IC50 (HDAC6): 8.43 ± 0.72 nM; IC50 (HDAC8): 22.5 nM; PGE2 production by RAW264.7 cells (prostaglandin E2 (PGE2) [1]; MPT0G009 0.1, 1, 10 μM, SAHA 0.3, 3, 30 μM, LPS 25 ng/mL 24 h): inhibited; IC50 (prostaglandin E2 (PGE2) [1]; Mus musculus, RAW264.7, LPS-stimulated RAW 264.7 macrophages, mean ± SEM, three experiments): 520 nM; PGE2 production by RA-FLS (prostaglandin E2 (PGE2) [2]): inhibited; IL-6 production by RA-FLS (IL-6): inhibited; proliferation of HIG-82 synoviocytes (HIG-82 synoviocytes): concentration-dependent anti-proliferative effects; proliferation of RA-FLS (RA-FLS [3]): concentration-dependent anti-proliferative effects; subG1 peak (cellular apoptosis) (RA-FLS [4]; MPT0G009 1-1000 nM, SAHA 3-3000 nM): did not increase the subG1 peak; G0/G1 phase arrest (RA-FLS [4]; all concentrations of both agents): G0/G1 phase arrest was observed; expression of p21 (p21): significantly increased; iNOS protein expression [5]: concentration-dependently inhibitory effects; iNOS protein expression ([5]; listed as compound 9): significantly inhibited; COX-2 protein expression (cyclooxygenase-2 (COX-2)): concentration-dependently inhibitory effects; COX-2 protein expression (cyclooxygenase-2 (COX-2); listed as compound 9): significantly inhibited; acetylation of histone H3 in RA-FLS (histone H3 (Acetyl-H3)): significant hyperacetylation of histone H3; RANKL-induced NFATc1 luciferase activity (NFATc1): inhibited; T1/2 ([6]; rat, in vivo, iv, 2 mg/kg): 6.74 h; Vd ([6]; rat, in vivo, iv, 2 mg/kg): 25.21 L/kg; T1/2 ([6]; rat, in vivo, po, 20 mg/kg): 9.53 h; F ([6]; rats, po 20 mg/kg, MPT0G009): 13.0%; IC50 [7]: 520 nM
